Consider 2 molecules from patent US10597314B2, “Fatty acid biodispersant and methods of use” (General Electric Company, priority 2013, dated 2020).

One assay has as its system biofilms. The assay is described as follows: Applicant's testing of the amount of cis-2-decenoic acid needed for sufficient activity. To be noted: relative to the Article's 1.0 nM to 10 mM. The format is cell-based. From the text: An article titled A Fatty Acid Messenger Is Responsible for Inducing Dispersion in Microbial Biofilms, published in March 2009 in the Journal of Bacteriology (“Article”) is incorporated by reference herein in its entirety. The Article discloses that cis-2-decenoic acid may be used to disperse biofilms.

Another assay has as its system Microbial Biofilms. To be noted: as stated in the Article; cited from earlier work.

With `CCCCCCC/C=C\C(=O)O` [cis-2-decenoic acid], the “actual amount needed for sufficient activity” value with biofilms is recorded as “several times more than that”.

Turning to `CCCCCCC/C=C/C(=O)O` [trans-2-decenoic acid], the “amount needed for activity (biofilm dispersion)” value in the assay on Microbial Biofilms was “in the mM range”.
